According to ChEMBL document CHEMBL1142875, “Synthesis and biological evaluation of 4-alkylamino-6-(2-hydroxyethyl)-2-methylthiopyrimidines as new rubella virus inhibitors” (Eur J Med Chem, 2007):
pIC50: −log10 of the molar value.

Legend:
[1] = Antiviral activity against Rubella virus strain THERIEN in Vero cells; assay type: functional, cell-based
[2] = Selectivity index, Ratio of CC50 for Vero cells to IC50 for Rubella virus strain THERIEN; assay type: functional
[3] = Inhibition of Rubella virus strain THERIEN in Vero cells after 48 hrs of high multiplicity infection by plaque assay; assay type: functional; set-up: concentration or dose not given beside the values
[4] = Cytotoxicity against Vero cells after 48 hrs; assay type: cell-based; details: chlorocebus sabaeus

Row | pIC50 [1] | SMILES | Ratio CC50/IC50 [2] | Inhibition [3] | CC50 at 48 h [4]
1 | 4.75 | CSc1nc(CCO)cc(N2CCN(c3cccc(C(F)(F)F)c3)CC2)n1 | 2.2 | 58.9% | 39.2 µM
2 | < 3.56 | CSc1nc(CCO)cc(N2CCC2)n1 | <2 | 35.6% | 556 µM
3 | 4.65 | CSc1nc(CCO)cc(N2CCSC2)n1 | 21.6 | 95.3% | 486 µM
4 | 3.77 | CSc1nc(CCO)cc(N(CCO)CCO)n1 | 10.7 | 95.7% | 1820 µM
5 | 4.32 | CSc1nc(CCO)cc(N2CCCC2)n1 | 10.9 | 72.6% | 523 µM
6 | 3.87 | C#CCNc1nc(SC)nc(CCO)c1Cl | 3.6 | 85.4% | 485 µM
7 | 3.83 | C#CCNc1nc(SC)nc(CCO)c1Br | 5.6 | 94.4% | 827 µM
8 | 4.32 | CSc1nc(CCO)cc(N2CCC(C)CC2)n1 | 4.9 | 96.5% | 233 µM
9 | 4.60 | CCCN(C)c1cc(CCO)nc(SC)n1 | 20.5 | 94.2% | 519 µM
10 | 4.67 | CCCCCNc1cc(CCO)nc(SC)n1 | 11.4 | 94.7% | 245 µM
11 | 3.97 | C#CCNc1cc(CCO)nc(SC)n1 | 10.4 | 98.8% | 1120 µM
12 | 3.95 | C=CCN(CC=C)c1cc(CCO)nc(SC)n1 | 2.2 | 54.7% | 249 µM
13 | 4.24 | CSc1nc(CCO)cc(N2CCN(c3ccccc3)CC2)n1 | 3.3 | 90% | 189 µM
14 | < 4.54 | CCCN(CCC)c1cc(CCO)nc(SC)n1 | <2 | 0% | 58 µM
15 | 4.80 | C=CCNc1nc(SC)nc(CCO)c1I | 22.7 | 93.9% | 356 µM
16 | 4.56 | COc1ccccc1N1CCN(c2cc(CCO)nc(SC)n2)CC1 | 6.2 | 96.1% | 174 µM

Row | pIC50 [1] | SMILES | Ratio CC50/IC50 [2] | Inhibition [3] | CC50 at 48 h [4]
17 | 4.79 | CCCCCNc1nc(SC)nc(CCO)c1Cl | 6.6 | 66.4% | 108 µM
18 | 4.31 | CSc1nc(CCO)cc(N2CCN(C(C)=O)CC2)n1 | 8.6 | 65.6% | 422 µM
19 | 4.36 | C=CCNc1nc(SC)nc(CCO)c1Cl | 11.1 | 83% | 481 µM
20 | 4.43 | CCCCCNc1nc(SC)nc(CCO)c1Br | 2.5 | 60% | 93.3 µM
21 | < 3.63 | CSc1nc(CCO)cc(N2CCN(C)CC2)n1 | <2 | 20.6% | 466 µM
22 | < 3.67 | COc1ccc(Nc2cc(CCO)nc(SC)n2)cc1 | <2 | 43.3% | 430 µM
23 | 3.94 | C#CCN(C)c1cc(CCO)nc(SC)n1 | 9.3 | 92.1% | 1050 µM
24 | 4.47 | C#CCNc1nc(SC)nc(CCO)c1I | 21 | 97.3% | 716 µM
25 | < 3.64 | CSc1nc(CCO)cc(N2CCSCC2)n1 | <2 | 45.2% | 461 µM
26 | < 4.27 | CSc1nc(CCO)cc(N(C)Cc2ccccc2)n1 | <2 | 31.9% | 108 µM
27 | 4.32 | CSc1nc(CCO)cc(NCc2ccc(Cl)cc2Cl)n1 | 3.8 | 76.1% | 182 µM
28 | 4.87 | CCCCN(CCCC)c1cc(CCO)nc(SC)n1 | 3.9 | 87% | 52.5 µM
29 | 4.56 | CCCCCNc1nc(SC)nc(CCO)c1I | 3 | 95.1% | 81.8 µM
30 | 4.29 | CSc1nc(CCO)cc(N2CCN(c3ccc(F)cc3)CC2)n1 | 3.5 | 93.2% | 180 µM
31 | 4.29 | C=CCNc1nc(SC)nc(CCO)c1Br | 8.1 | 86.9% | 411 µM
32 | 4.09 | CSc1nc(CCO)cc(N(C)C)n1 | 7.3 | 92.8% | 587 µM
